# Where two headings read alike, the source gives them in different places.
# Assays:
# E. coli GC2270 (tet(M)) = assay: MIC broth microdilution, E. coli GC2270 (tet(M)); format: cell-based; settings: MHBII, 18-22 hours at 35° C.
# Experimental: (§1) Methods for in Vitro Antibacterial Evaluation
# (§2) The minimum inhibitory concentration (MIC)
# (§3) Antimicrobial susceptibility testing. The in vitro activities of representative examples of antibiotics of the invention are determined by the broth microdilution method as recommended by the National Committee for Clinical Laboratory Standards (NCCLS) (1). Mueller-Hinton II broth (MHBII)(BBL Cockeysville, Md.) is the medium employed in the testing procedures. Microtiter plates containing serial dilutions of each antimicrobial agent are inoculated with each organism to yield the appropriate density (10^5 CFU/ml) in a 100 μl final volume. The plates are incubated for 18-22 hours at 35° C. in ambient air. […] NCCLS. 2000. Methods for Dilution Antimicrobial Susceptibility Tests for Bacteria That Grow Aerobically; Approved Standards: M7-A5, vol. 20. National Committe for Clinical Laboratory Standards, Wayne, Pa.
# [1] = test system: E. coli GC4559 (parent GC4560); assay: MIC broth microdilution, E. coli GC4559 (parent GC4560); format: cell-based; settings: MHBII, 18-22 hours at 35° C.
# Experimental: as §1, §2, §3
# [2] = test system: E. coli GC4560 (IMP mutant); assay: MIC broth microdilution, E. coli GC4560 (IMP mutant); format: cell-based; settings: MHBII, 18-22 hours at 35° C.
# Experimental: as §1, §2, §3
# [3] = test system: E. coli GC2203 (ATCC Control); assay: MIC broth microdilution, E. coli GC2203 (ATCC Control); format: cell-based; settings: MHBII, 18-22 hours at 35° C.
# Experimental: as §1, §2, §3
# E. coli GC1073 (tet(B)) = assay: MIC broth microdilution, E. coli GC1073 (tet(B)); format: cell-based; settings: MHBII, 18-22 hours at 35° C.
# Experimental: as §1, §2, §3
# [4] = test system: S. aureus GC1131 (Clinical); assay: MIC broth microdilution, S. aureus GC1131 (Clinical); format: cell-based; settings: MHBII, 18-22 hours at 35° C.
# Experimental: as §1, §2, §3
# [5] = test system: S. aureus GC6466 (tet(M)); assay: MIC broth microdilution, S. aureus GC6466 (tet(M)); format: cell-based; settings: MHBII, 18-22 hours at 35° C.
# Experimental: as §1, §2, §3
# [6] = test system: S. aureus GC6467 (tet(M) + (K)); assay: MIC broth microdilution, S. aureus GC6467 (tet(M) + (K)); format: cell-based; settings: MHBII, 18-22 hours at 35° C.
# Experimental: as §1, §2, §3
# [7] = test system: S. aureus GC1079 (tet(K)); assay: MIC broth microdilution, S. aureus GC1079 (tet(K)); format: cell-based; settings: MHBII, 18-22 hours at 35° C.
# Experimental: as §1, §2, §3
# [8] = test system: S. aureus GC4536 (Smith MP -In Vivo); assay: MIC broth microdilution, S. aureus GC4536 (Smith MP -In Vivo); format: cell-based; settings: MHBII, 18-22 hours at 35° C.
# Experimental: as §1, §2, §3
# [9] = test system: S. aureus GC2216 (ATCC Control); assay: MIC broth microdilution, S. aureus GC2216 (ATCC Control); format: cell-based; settings: MHBII, 18-22 hours at 35° C.
# Experimental: as §1, §2, §3
# [10] = test system: E. faecalis GC4555 (ATCC Control); assay: MIC broth microdilution, E. faecalis GC4555 (ATCC Control); format: cell-based; settings: MHBII, 18-22 hours at 35° C.
# Experimental: as §1, §2, §3
# [11] = test system: E. faecalis GC2267 (tet(L) + (M) + (S)); assay: MIC broth microdilution, E. faecalis GC2267 (tet(L) + (M) + (S)); format: cell-based; settings: MHBII, 18-22 hours at 35° C.
# Experimental: as §1, §2, §3
# [12] = test system: E. faecalis GC2242 (Van-resistant); assay: MIC broth microdilution, E. faecalis GC2242 (Van-resistant); format: cell-based; settings: MHBII, 18-22 hours at 35° C.
# Experimental: as §1, §2, §3
# [13] = test system: S. pneumoniae* GC4465 (Clinical); assay: MIC broth microdilution, S. pneumoniae GC4465 (Clinical); format: cell-based; settings: 18-22 hours at 35° C.
# Experimental: as §1, §2, §3
# [14] = test system: S. pneumoniae* GC1894 (Clinical); assay: MIC broth microdilution, S. pneumoniae GC1894 (Clinical); format: cell-based; settings: 18-22 hours at 35° C.
# Experimental: as §1, §2, §3
# [15] = test system: S. pyogenes* GC4563 (Clinical); assay: MIC broth microdilution, S. pyogenes GC4563 (Clinical); format: cell-based; settings: 18-22 hours at 35° C.
# Experimental: as §1, §2, §3
# [16] = test system: M. catarrhalis* GC6907 (Clinical); assay: MIC broth microdilution, M. catarrhalis GC6907 (Clinical); format: cell-based; settings: 18-22 hours at 35° C.
# Experimental: as §1, §2, §3
# [17] = test system: H. influenzae<> GC6896 (ATCC Control); assay: MIC broth microdilution, H. influenzae GC6896 (ATCC Control); format: cell-based; settings: 18-22 hours at 35° C.
# Experimental: as §1, §2, §3
# [18] = test system: C. albicans GC3066 ATCC (Control); assay: MIC broth microdilution, C. albicans GC3066 ATCC (Control); format: cell-based; settings: 18-22 hours at 35° C.
# Experimental: as §1, §2, §3
# [19] = test system: Staphylococcal aureus Smith M P; assay: In vivo antibacterial evaluation, acute lethal infection in mice; settings: Mus musculus; single oral dose 30 minutes after intraperitoneal challenge; female CD-1 mice; 7 day survival ratios, 3 tests pooled; read-out: SOD* ED50
# Experimental: In Vivo Antibacterial Evaluation: The therapeutic effects of representative examples of the invention are determined against acute lethal infection with Staphylococcal aureus Smith M P, Female mice, strain CD-1 (Charles River Laboratoties), ca. 20 grams, are challenged by an intraperitoneal injection of sufficient bacteria (suspended in broth or hog mucin) to kill non-treated controls within 24-28 hours. Antibacterial agents, contained in 0.5 ml of 0.2% aqueous agar, are administered subcutaneously or orally 30 minutes after injection. When an oral dosing schedule is used, animal are deprived of food for 5 hours before and 2 hours after injection. Five mice are treated at each dose level. The 7 day survival ratios from 3 separate tests are pooled for calculation of median effective dose (ED50).
# [20] = test system: Staphylococcal aureus Smith M P; assay: MIC reported in Table 2 beside the in vivo ED50; format: cell-based; settings: Staphylococcus aureus, infecting strain S. aureus Smith MP
# Experimental: Antimicrobial susceptibility testing. The in vitro activities of representative examples of antibiotics of the invention are determined by the broth microdilution method as recommended by the National Committee for Clinical Laboratory Standards (NCCLS) (1). Mueller-Hinton II broth (MHBII)(BBL Cockeysville, Md.) is the medium employed in the testing procedures. Microtiter plates containing serial dilutions of each antimicrobial agent are inoculated with each organism to yield the appropriate density (10^5 CFU/ml) in a 100 μl final volume. The plates are incubated for 18-22 hours at 35° C. in ambient air. […] NCCLS. 2000. Methods for Dilution Antimicrobial Susceptibility Tests for Bacteria That Grow Aerobically; Approved Standards: M7-A5, vol. 20. National Committe for Clinical Laboratory Standards, Wayne, Pa. In Vivo Antibacterial Evaluation: The therapeutic effects of representative examples of the invention are determined against acute lethal infection with Staphylococcal aureus Smith M P, Female mice, strain CD-1 (Charles River Laboratoties), ca. 20 grams, are challenged by an intraperitoneal injection of sufficient bacteria (suspended in broth or hog mucin) to kill non-treated controls within 24-28 hours. Antibacterial agents, contained in 0.5 ml of 0.2% aqueous agar, are administered subcutaneously or orally 30 minutes after injection. When an oral dosing schedule is used, animal are deprived of food for 5 hours before and 2 hours after injection. Five mice are treated at each dose level. The 7 day survival ratios from 3 separate tests are pooled for calculation of median effective dose (ED50).
# [21] = test system: Staphylococcal aureus Smith M P; assay: In vivo antibacterial evaluation, acute lethal infection in mice; settings: Mus musculus, iv, 168 h; single intraveneous dose; female CD-1 mice; 7 day survival ratios, 3 tests pooled; read-out: SIV* ED50
SMILES,minimum inhibitory concentration (MIC) (E. coli GC2270 (tet(M))),minimum inhibitory concentration (MIC) [1],minimum inhibitory concentration (MIC) [2],minimum inhibitory concentration (MIC) [3],minimum inhibitory concentration (MIC) (E. coli GC1073 (tet(B))),minimum inhibitory concentration (MIC) [4],minimum inhibitory concentration (MIC) [5],minimum inhibitory concentration (MIC) [6],minimum inhibitory concentration (MIC) [7],minimum inhibitory concentration (MIC) [8],minimum inhibitory concentration (MIC) [9],minimum inhibitory concentration (MIC) [10],minimum inhibitory concentration (MIC) [11],minimum inhibitory concentration (MIC) [12],minimum inhibitory concentration (MIC) [13],minimum inhibitory concentration (MIC) [14],minimum inhibitory concentration (MIC) [15],minimum inhibitory concentration (MIC) [16],minimum inhibitory concentration (MIC) [17],minimum inhibitory concentration (MIC) [18],further results
"CN(C)c1cc(NC(=O)CNOC(C)(C)C)c(O)c2c1C[C@H]1C[C@H]3[C@H](N(C)C)C(O)=C(C(N)=O)C(=O)[C@@]3(O)C(O)=C1C2=O [Example 4, (4S,4aS,5aR,12aS)-9-{[N-(tert-butoxy)glycyl]amino}-4,7-bis(dimethylamino)-3,10,12,12a-tetrahydroxy-1,11-dioxo-1,4,4a,5,5a,6,11,12a-octahydrotetracene-2-carboxamide]",8,16,0.50,8,16,1,1,>64,16,1,1,1,8,1,0.25,0.25,0.12,0.50,2,>64,ED50 [19]: 1.1 mg/kg; MIC [20]: 4 µg/mL; ED50 [21]: 0.25 to 1 mg/kg
"CONCC(=O)Nc1cc(N(C)C)c2c(c1O)C(=O)C1=C(O)[C@]3(O)C(=O)C(C(N)=O)=C(O)[C@@H](N(C)C)[C@@H]3C[C@@H]1C2 [Example 5, (4S,4aS,5aR,12aS)-4,7-bis(dimethylamino)-3,10,12,12a-tetrahydroxy-9-[(N-methoxyglycyl)amino]-1,11-dioxo-1,4,4a,5,5a,6,11,12a-octahydrotetracene-2-carboxamide]",4,4,0.25,2,4,1,1,4,2,1,1,1,4,2,0.12,0.25,0.25,0.25,2,>64,ED50 [19]: 16 to 32 mg/kg; MIC [20]: 1 µg/mL; ED50 [21]: 0.5 to 1 mg/kg
"CON(C)CC(=O)Nc1cc(N(C)C)c2c(c1O)C(=O)C1=C(O)[C@]3(O)C(=O)C(C(N)=O)=C(O)[C@@H](N(C)C)[C@@H]3C[C@@H]1C2 [Example 7, (4S,4aS,5aR,12aS)-4,7-bis(dimethylamino)-3,10,12,12a-tetrahydroxy-9-[(N-methoxy-N-methylglycyl)amino]-1,11-dioxo-1,4,4a,5,5a,6,11,12a-octahydrotetracene-2-carboxamide]",>64,>64,1,>64,>64,4,2,>64,32,2,2,1,8,2,0.50,0.50,0.25,0.50,4,>64,ED50 [19]: 16 to 32 mg/kg; MIC [20]: 2 µg/mL; ED50 [21]: 0.5 to 2 mg/kg
"CN(C)c1cc(NC(=O)CN(O)C(C)(C)C)c(O)c2c1C[C@H]1C[C@H]3[C@H](N(C)C)C(O)=C(C(N)=O)C(=O)[C@@]3(O)C(O)=C1C2=O [Example 3, (4S,4aS,5aR,12aS)-9-{[N-(tert-butyl)-N-hydroxyglycyl]amino}-4,7-bis(dimethylamino)-3,10,12,12a-tetrahydroxy-1,11-dioxo-1,4,4a,5,5a,6,11,12a-octahydrotetracene-2-carboxamide]",>64,>64,1,32,>64,4,4,16,8,4,4,4,8,8,1,1,0.50,2,8,>64,ED50 [19]: > 32 mg/kg; MIC [20]: 1 µg/mL; ED50 [21]: 2 to 4 mg/kg

# — US7812008B2, “9-substituted tetracyclines” (Wyeth LLC, priority 2005, dated 2010)
